Test results as given in patent US20240101572A1, “DIHYDROOXADIAZINONE COMPOUND AND PHARMACEUTICAL USE THEREOF” (Japan Tobacco Inc., priority 2022, published 2024).
pIC50: −log10 of the molar value. Where two headings read alike, the source gives them in different places.

Tests used:
[1] = biological target: full-length human PLD1 (Homo sapiens (Human), UniProt Q13393); test: Evaluation of human PLD1 enzyme inhibitory activity (Amplex Red / choline oxidase fluorescence); assay type: biochemical; conditions: for pIC50: full-length human PLD1 enzyme, read-out: PLD1 IC50
Experimental: A method for measuring human PLD1 enzyme inhibitory activity using an enzyme in which a FLAG-tag is added to the N-terminus of full-length human PLD1 (1-1036 amino acids) is shown below.
(§1) DNA fragment in which a FLAG-tag sequence is added to the 5′-end of full-length human PLD1 was amplified by PCR method, using commercially available human PLD1 gene (Promega KK) as a template. The amplified DNA fragment was fused with vector pVL1393 for baculovirus production (Pharmingen) digested with BamHI and EcoRI, using In-Fusion HD Cloning Kit (Takara Bio). The full-length human PLD1-expression plasmid DNA for baculovirus was isolated from Escherichia coli DH5a (TOYOBO) transformed with the obtained In-Fusion reaction product. Next, DNA fragment in which a FLAG-tag sequence is added to the 5′-end of full-length human PLD1 was amplified by PCR method, using the full-length human PLD1-expression plasmid DNA for baculovirus as a template. The amplified DNA fragment was fused with a DNA fragment in which a linker sequence is introduced into pcDNA3.4-TOPO (Life Technologies), using In-Fusion HD Cloning Kit (Takara Bio). The full-length human PLD1-expression plasmid DNA for animal cells was isolated from Escherichia coli DH5a transformed with the obtained In-Fusion reaction product. The base sequence of the full-length human PLD1 cloned into vector was determined by a Dye Terminator method using BigDye Terminator v3.1 Cycle Sequencing Kit (Applied Biosystems). The determined sequence was a sequence in which the FLAG-tag sequence was inserted at the 5′-end of the full-length human PLD1 (GenBank Accession Number: NM_001130081).
(§2) Expi293F cells (Life Technologies) were cultured with shaking using Expi293 Expression Medium (Life Technologies) as a medium at 37° C. in the presence of 8% CO2. The gene introduction reagent PEI was prepared by dissolving Polyethylenimine Max (nominally MW 40,000) (Polysciences) in MilliQ water, adjusting the pH of the solution to 7.0 with NaOH to obtain a 1 mg/mL solution, and then filtering the solution through 0.22 μm filter. The full-length human PLD1-expression plasmid DNA for animal cells was transfected into Expi293F cells using PEI, and after 48 hours of shaking culture, the cells were collected and stored at −80° C.
(§3) To the full-length human PLD1-expressed cells was added a Homogenate buffer (20 mmol/L Na-phosphate pH 7.5, 250 mmol/L NaCl, 1 mmol/L MgCl2, 1% β-OG, 0.05 mmol/L DTT+complete EDTA-free (Roche Diagnostics K.K.)), and the cells were lysed by Microfluidizer Processor M-110EH (Mizuho Kogyo Co., Ltd.). The lysate was centrifuged at 10,100×g at 4° C. for 15 minutes, and the supernatant was collected and filtered through 0.45 μm filter. To the centrifuged supernatant was added ANTI-FLAG M2 Affinity Gel (SIGMA-Aldrich) resin equilibrated with a Homogenate buffer, and the mixed solution was stirred at 4° C. for 1 hr or more. The mixed solution was loaded onto Poly-Prep column, and the resin was washed with a Wash buffer (20 mmol/L Na-phosphate pH 7.5, 150 mmol/L NaCl, 1 mmol/L MgCl2, 0.02% Triton, 0.05 mmol/L DTT). A Wash buffer containing 400 μg/mL DYKDDDDK Peptide (Scrum Inc.) was added to the column to elute the protein bound to the resin. The eluted fractions were subjected to SDS-PAGE followed by CBB staining to identify the fractions containing the full-length human PLD1. The eluted fractions of the full-length human PLD1 were collected and concentrated using Amicon Ultra-15 100k (Merck Millipore). The concentrated fractions were collected, flash-frozen in liquid nitrogen and stored at −80° C.
(§4) A DMSO or test substance solution (the DMSO final concentration: 5%) prepared by diluting DMSO or test substance with an Assay buffer (50 mmol/L HEPES pH 7.5, 80 mmol/L KCl, 3 mmol/L EGTA, 3.6 mmol/L MgCl2, 0.01% NP-40, 0.1% BSA), and the solution was added to a 384 well Assay Plate (Black, Polystyrene, Non-Treated, Cat No. 3573, Corning) by 5 μL/well. […]

[2] = biological target: full-length human PLD2 (Homo sapiens (Human), UniProt O14939); test: Evaluation of human PLD2 enzyme inhibitory activity (Amplex Red / choline oxidase fluorescence); assay type: biochemical; conditions: for pIC50: full-length human PLD2 enzyme, read-out: PLD2 IC50
Experimental: A method for measuring human PLD2 enzyme inhibitory activity using an enzyme in which a FLAG-tag is added to the N-terminus of full-length human PLD2 (1-933 amino acids) is shown below.
as §1, with “PLD2” for “PLD1”, “PLD2-expression” for “PLD1-expression”, “NM 002663).” for “NM_001130081).”
as §2, with “PLD2-expression” for “PLD1-expression”
as §3, with “PLD2-expressed” for “PLD1-expressed”, “PLD2.” for “PLD1.”, “PLD2” for “PLD1”
as §4

Sequence of full-length human PLD1 (Q13393 other isoform, or with tags, fused parts or gaps): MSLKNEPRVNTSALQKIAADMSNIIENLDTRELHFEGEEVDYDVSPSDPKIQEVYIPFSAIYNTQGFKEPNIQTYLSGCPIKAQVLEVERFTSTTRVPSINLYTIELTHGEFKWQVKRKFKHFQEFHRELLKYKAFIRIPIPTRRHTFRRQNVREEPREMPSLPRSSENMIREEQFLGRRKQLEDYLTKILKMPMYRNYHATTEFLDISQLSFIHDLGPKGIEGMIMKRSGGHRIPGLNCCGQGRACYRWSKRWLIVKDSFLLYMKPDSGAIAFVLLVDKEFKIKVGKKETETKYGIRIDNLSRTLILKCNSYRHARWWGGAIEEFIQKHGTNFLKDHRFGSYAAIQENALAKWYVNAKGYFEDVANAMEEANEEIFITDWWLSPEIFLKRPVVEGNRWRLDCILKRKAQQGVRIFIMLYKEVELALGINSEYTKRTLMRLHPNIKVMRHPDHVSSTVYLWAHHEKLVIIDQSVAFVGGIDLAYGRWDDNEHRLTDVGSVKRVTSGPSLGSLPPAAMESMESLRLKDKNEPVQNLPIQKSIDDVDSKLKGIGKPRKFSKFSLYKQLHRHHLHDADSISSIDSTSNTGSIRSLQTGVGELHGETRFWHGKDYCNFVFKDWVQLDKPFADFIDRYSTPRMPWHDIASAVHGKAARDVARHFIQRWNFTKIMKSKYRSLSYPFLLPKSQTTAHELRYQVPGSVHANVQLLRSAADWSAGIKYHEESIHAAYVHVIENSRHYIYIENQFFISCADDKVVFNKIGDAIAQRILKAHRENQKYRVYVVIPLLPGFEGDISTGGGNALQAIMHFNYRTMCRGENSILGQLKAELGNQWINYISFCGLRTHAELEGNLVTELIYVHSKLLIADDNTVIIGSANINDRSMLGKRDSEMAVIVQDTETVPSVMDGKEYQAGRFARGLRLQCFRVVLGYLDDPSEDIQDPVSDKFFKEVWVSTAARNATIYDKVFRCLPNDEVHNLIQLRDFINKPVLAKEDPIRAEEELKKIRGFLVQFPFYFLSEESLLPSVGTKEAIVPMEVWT
Sequence of full-length human PLD2 (O14939 whole entry, the tested form may be a part): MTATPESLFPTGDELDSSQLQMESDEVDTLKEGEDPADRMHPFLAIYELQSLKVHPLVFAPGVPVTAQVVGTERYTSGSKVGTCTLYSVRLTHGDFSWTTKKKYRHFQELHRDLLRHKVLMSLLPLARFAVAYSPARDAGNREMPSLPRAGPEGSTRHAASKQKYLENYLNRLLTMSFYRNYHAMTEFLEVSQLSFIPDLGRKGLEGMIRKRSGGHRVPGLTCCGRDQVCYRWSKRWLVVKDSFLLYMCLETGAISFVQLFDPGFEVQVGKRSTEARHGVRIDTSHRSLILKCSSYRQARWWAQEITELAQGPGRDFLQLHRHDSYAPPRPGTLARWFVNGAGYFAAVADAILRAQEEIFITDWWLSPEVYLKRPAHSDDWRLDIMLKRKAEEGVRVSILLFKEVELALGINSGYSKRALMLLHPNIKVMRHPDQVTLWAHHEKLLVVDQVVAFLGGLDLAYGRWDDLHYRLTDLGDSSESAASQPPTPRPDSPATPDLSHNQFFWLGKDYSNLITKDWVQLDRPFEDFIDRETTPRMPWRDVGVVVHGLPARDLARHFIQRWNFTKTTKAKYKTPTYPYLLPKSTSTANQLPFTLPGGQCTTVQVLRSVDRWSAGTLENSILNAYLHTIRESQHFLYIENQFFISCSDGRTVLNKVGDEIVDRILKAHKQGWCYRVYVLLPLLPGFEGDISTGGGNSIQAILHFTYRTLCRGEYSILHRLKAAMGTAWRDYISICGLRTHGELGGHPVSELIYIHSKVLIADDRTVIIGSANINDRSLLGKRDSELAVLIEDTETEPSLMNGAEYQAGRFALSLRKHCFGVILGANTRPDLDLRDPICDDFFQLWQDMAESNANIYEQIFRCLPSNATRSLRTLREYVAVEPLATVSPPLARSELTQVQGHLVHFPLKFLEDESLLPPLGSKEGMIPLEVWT

Structure (SMILES)	pIC50 [1]	pIC50 [2]	other results
CNC(=O)C(=O)N[C@@H](C)CN1CCC2(CC1)OC(=O)NN=C2c1ccc(F)cc1Br [Example 179, (S)—N^1-(1-(5-(2-bromo-4-fluorophenyl)-2-oxo-1-oxa-3,4,9-triazaspiro[5.5]undec-4-en-9-yl)propan-2-yl)-N^2-methyloxamide]	7.60	> 8.00	–
CNC(=O)C(=O)N[C@@H](C)C[C@H]1CC[C@]2(CC1)OC(=O)NN=C2c1cc(C)ccc1C [Example 126]	7.89	> 8.00	–
C[C@@H](CN1CCC2(CC1)OC(=O)NN=C2c1ccc(F)cc1Cl)NC(=O)c1cc(C(F)(F)F)[nH]n1 [Example 100]	7.39	7.48	–
Cc1ccncc1C1=NNC(=O)O[C@]12CC[C@@H](C[C@H](C)NC(=O)c1nc3ccccc3[nH]1)CC2 [Example 146]	7.70	> 8.00	–
CNC(=O)C(=O)N[C@@H](C)C[C@H]1CC[C@]2(CC1)OC(=O)NN=C2c1cnc(N2CC(F)(F)C2)cc1C [Example 228]	7.55	> 8.00	–
CNC(=O)C(=O)N[C@@H](C)CN1CCC2(CC1)OC(=O)NN=C2c1ncccc1Br [Example 2-028]	7.35	7.49	–
COc1cc(C)c(C2=NNC(=O)O[C@]23CC[C@@H](C[C@H](C)NC(=O)N2CCn4ncnc4C2)CC3)cn1 [Example 257]	6.58	6.67	–
C[C@@H](C[C@H]1CC[C@]2(CC1)OC(=O)NN=C2c1cc(C#N)ccc1Br)NC(=O)c1ncon1 [Example 293]	6.90	6.49	–
C[C@@H](C[C@H]1CC[C@]2(CC1)OC(=O)NN=C2c1ccc(F)cc1Br)NC(=O)C1CC1 [Example 21]	6.51	6.46	–
Cc1cc(C(=O)N[C@@H](C)C[C@H]2CC[C@]3(CC2)OC(=O)NN=C3c2cccnc2)[nH]n1 [Example 16]	6.03	6.01	–
CNC(=O)/C=C/C(=O)N[C@@H](C)CN1CCC2(CC1)OC(=O)NN=C2c1cc(C#N)ccc1Br [Example 2-041]	6.83	6.99	–
CNC(=O)C(=O)N[C@@H](C)C[C@H]1CC[C@]2(CC1)OC(=O)NN=C2c1cc(C(=O)NC(C)(C)C)ccc1Br [Example 299]	7.60	> 8.00	–
Cc1cc(C(=O)N[C@@H](C)C[C@H]2CC[C@]3(CC2)OC(=O)NN=C3c2ccc(C(=O)NC3CC3)cc2C)[nH]n1 [Example 204]	6.91	6.84	–
Cc1cc(C(=O)N[C@@H](C)C[C@H]2CC[C@]3(CC2)OC(=O)NN=C3c2ccccc2OC(F)(F)F)[nH]n1 [Example 110]	7.08	7.00	–
CNC(=O)C(=O)N[C@@H](C)C[C@H]1CC[C@]2(CC1)OC(=O)NN=C2c1cc(F)ccc1Br [Example 157]	> 8.00	> 8.00	–
C[C@@H](C[C@H]1CC[C@]2(CC1)OC(=O)NN=C2c1ccc(F)cc1Br)NC(=O)OC(C)(C)C [Example 34]	–	–	inhibition at 10 µM ([1]; 10 μM compound, read-out: PLD1 inhibition rate at 10 μM): 36%; inhibition at 10 µM ([1]; read-out: inhibition rate of PLD1 at 10 μM compound): 36%; inhibition at 10 µM ([2]; 10 μM compound, read-out: PLD2 inhibition rate at 10 μM): 17%; inhibition at 10 µM ([2]; read-out: inhibition rate of PLD2 at 10 μM compound): 17%
C[C@@H](C[C@H]1CC[C@]2(CC1)OC(=O)NN=C2c1cc(C#N)ccc1Br)NC(=O)c1cnn(C)c1 [Example 325]	7.82	> 8.00	–
CNC(=O)C(=O)N[C@@H](C)C[C@H]1CC[C@]2(CC1)OC(=O)NN=C2c1cc(OC(F)F)ccc1C [Example 194]	> 8.00	> 8.00	–
CNC(=O)C(=O)N[C@@H](C)C[C@H]1CC[C@]2(CC1)OC(=O)NN=C2c1ccccc1OC(F)(F)F [Example 105]	7.57	7.39	–
CNC(=O)C(=O)N[C@@H](C)C[C@H]1CC[C@]2(CC1)OC(=O)NN=C2c1cnc(C(N)=O)cc1C [Example 187]	6.65	6.34	–
C[C@@H](C[C@H]1CC[C@]2(CC1)OC(=O)NN=C2c1ccc(F)cc1)NC(=O)c1cc2ccccc2o1 [Example 7]	7.52	7.36	–
CNC(=O)C(=O)N[C@@H](C)C[C@H]1CC[C@]2(CC1)OC(=O)NN=C2c1cnc(Cl)cc1C [Example 158]	7.57	7.82	–
